Data: the supplement of paper PMC8149375

Key:
Settings in all cases: treatment: drug + dasatinib (fixed dose, not stated); 5 days
SN12C [1] = assay: minimum viability across doses, drug + dasatinib, relative to DMSO (fraction); higher = less growth inhibition
Experimental: (§1)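 Primary HTS combination arm: 8 RCC cell lines treated with 8 doses (up to 10 uM) of each library drug plus a fixed dose of dasatinib (dose not stated) for 5 days; viability read by CellTiter-Glo and normalised to DMSO. GI50 was fitted with XLfit, AUC is the area under the dose-response curve, and minimum viability is the lowest fraction of DMSO viability across doses.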

TK-10 [2] = assay: as above
Experimental: as §1

769-P [3] = assay: as above
Experimental: as §1

A498 [4] = assay: as above
Experimental: as §1

ACHN [5] = assay: as above
Experimental: as §1

CAKI-1 [6] = assay: as above
Experimental: as §1

786-O [7] = assay: as above
Experimental: as §1

UO-31 [8] = assay: as above
Experimental: as §1

SN12C [9] = assay: GI50 of drug in presence of dasatinib; higher = less potent
Experimental: as §1

TK-10 [10] = assay: as above
Experimental: as §1

769-P [11] = assay: as above
Experimental: as §1

A498 [12] = assay: as above
Experimental: as §1

ACHN [13] = assay: as above
Experimental: as §1

CAKI-1 [14] = assay: as above
Experimental: as §1

786-O [15] = assay: as above
Experimental: as §1

UO-31 [16] = assay: as above
Experimental: as §1

SN12C [17] = assay: AUC of dose-response viability curve, drug + dasatinib, normalised to DMSO (arbitrary (AUC of normalised viability)); higher = less growth inhibition
Experimental: as §1

TK-10 [18] = assay: as above
Experimental: as §1

769-P [19] = assay: as above
Experimental: as §1

A498 [20] = assay: as above
Experimental: as §1

ACHN [21] = assay: as above
Experimental: as §1

CAKI-1 [22] = assay: as above
Experimental: as §1

786-O [23] = assay: as above
Experimental: as §1

UO-31 [24] = assay: as above
Experimental: as §1

Compound	minimum viability across doses (SN12C [1])	minimum viability across doses (TK-10 [2])	minimum viability across doses (769-P [3])	minimum viability across doses (A498 [4])	minimum viability across doses (ACHN [5])	minimum viability across doses (CAKI-1 [6])	minimum viability across doses (786-O [7])	minimum viability across doses (UO-31 [8])	GI50 of drug (SN12C [9]) [µM]	GI50 of drug (TK-10 [10]) [µM]	GI50 of drug (769-P [11]) [µM]	GI50 of drug (A498 [12]) [µM]	GI50 of drug (ACHN [13]) [µM]	GI50 of drug (CAKI-1 [14]) [µM]	GI50 of drug (786-O [15]) [µM]	GI50 of drug (UO-31 [16]) [µM]	AUC of dose-response viability curve (SN12C [17])	AUC of dose-response viability curve (TK-10 [18])	AUC of dose-response viability curve (769-P [19])	AUC of dose-response viability curve (A498 [20])	AUC of dose-response viability curve (ACHN [21])	AUC of dose-response viability curve (CAKI-1 [22])	AUC of dose-response viability curve (786-O [23])	AUC of dose-response viability curve (UO-31 [24])
CNC(=O)c1cc(COc2nnc(Nc3ccc(Cl)cc3)c3ccoc23)ccn1 [Telatinib (BAY 57-9352)] + Cc1nc(Nc2ncc(C(=O)Nc3c(C)cccc3Cl)s2)cc(N2CCN(CCO)CC2)n1 [dasatinib]	0.673	0.334	0.355	0.784	0.474	0.188	0.0325	0.989	> 10	4.84	5.53	> 10	7.5	3.47	4	> 10	2.51	2.45	2.25	3.74	2.22	2.19	2.23	4
CC(C)(C)c1cc(/C=C(\C#N)C(N)=S)cc(C(C)(C)C)c1O [Tyrphostin AG 879 (AG 879)] + Cc1nc(Nc2ncc(C(=O)Nc3c(C)cccc3Cl)s2)cc(N2CCN(CCO)CC2)n1 [dasatinib]	0.706	0.653	0.689	1	0.556	0.45	0.458	1.26	> 10	> 10	> 10	> 10	> 10	7.59	< 0.003	> 10	2.56	2.39	2.55	3.69	2.11	2.38	1.83	5.04
CN(C)c1ccc(-c2nc3c(N4CCN(CC(=O)Nc5nccs5)CC4)c(Cl)cnc3[nH]2)cc1 + Cc1nc(Nc2ncc(C(=O)Nc3c(C)cccc3Cl)s2)cc(N2CCN(CCO)CC2)n1 [dasatinib]	0.2	0.487	0.307	0.281	0.145	0.0775	0.26	0.107	0.976	4.03	1.95	3.35	0.162	0.334	0.953	2.84	2.03	2.34	2.19	2.88	1.53	1.69	1.91	3.26
O=C1C(=O)N(Cc2ccc(Cl)c(Cl)c2)c2ccccc21 [Apoptosis Activator 2] + Cc1nc(Nc2ncc(C(=O)Nc3c(C)cccc3Cl)s2)cc(N2CCN(CCO)CC2)n1 [dasatinib]	0.265	0.454	0.486	0.411	0.295	0.187	0.0758	0.211	4.6	7.39	8.61	8.37	1.99	2.23	> 10	9.07	2.47	2.34	2.46	3.56	1.92	2.19	1.72	4.31
COc1ccc2cc(-c3[nH]c(-c4ccc(S(C)=O)cc4)nc3-c3ccncc3)ccc2c1 (stereo not drawn) [Tie2 kinase inhibitor] + Cc1nc(Nc2ncc(C(=O)Nc3c(C)cccc3Cl)s2)cc(N2CCN(CCO)CC2)n1 [dasatinib]	0.64	0.68	0.595	0.97	0.521	0.657	0.468	1.07	> 10	> 10	> 10	> 10	> 10	> 10	8.92	> 10	2.4	2.69	2.36	3.88	2.03	2.41	2.51	4.56
CC(C)(C)c1cc(C=C(C#N)C#N)cc(Br)c1O [AG-1024] + Cc1nc(Nc2ncc(C(=O)Nc3c(C)cccc3Cl)s2)cc(N2CCN(CCO)CC2)n1 [dasatinib]	0.687	0.698	0.586	0.971	0.515	0.57	0.601	1.06	> 10	> 10	> 10	> 10	> 10	> 10	> 10	> 10	2.55	2.59	2.38	3.66	2.02	2.24	2.42	4.02
CC1(C)CCC(c2ccc(Cl)cc2)=C(CN2CCN(c3ccc(C(=O)NS(=O)(=O)c4ccc(N[C@H](CCN5CCOCC5)CSc5ccccc5)c(S(=O)(=O)C(F)(F)F)c4)cc3)CC2)C1 [ABT-263 (Navitoclax)] + Cc1nc(Nc2ncc(C(=O)Nc3c(C)cccc3Cl)s2)cc(N2CCN(CCO)CC2)n1 [dasatinib]	0.502	0.0882	0.024	0.608	0.0781	0.555	0.00344	0.00471	> 10	1.08	0.768	> 10	1.06	> 10	0.136	0.4	2.48	2.03	1.92	3.01	1.9	2.36	1.46	2
